Measurements: US7105564B1, “Pharmaceutical composition comprising a dual antagonist against PGD2/TXA2 receptors having a [2.2.1] or [3.1.1] bicyclic skeleton” (Shionogi & Co., Ltd., priority 1999, dated 2006)
Marks after values point to notes of the source that are not given here.

Key:
Male Hartley guinea pigs [1] = experiment: Antigen-induced bronchoconstriction; format: in vivo, guinea pig; details: for antigen-induced bronchoconstriction (in words): summary of Tables 40-42
Method: Antigen-induced bronchoconstriction
Male Hartley guinea pigs were passively sensitized by intravenous injection of anti-OVA serum (antibody titer: 1: 3200), and 48 hours later, the animals were challenged by intravenous injection of OVA (70 micro g/kg). The bronchoconstriction induced by antigen was continuously monitored by means of modified method of Konzett-Rössler technique. The peak value of bronchoconstriction in each animal was used for evaluation of compounds. Compound (I-1b) and compound (B-2) were orally administered 1 hour before, compound (A) 2 hours before antigen challenge. The results are shown as follows. *: P<0.05 vs Vehicle, ##: P<0.01 vs Vehicle. ( ): inhibition %.

Male Hartley guinea pigs [2] = experiment: Antigen-induced bronchial hyperresponsiveness; format: in vivo, guinea pig; details: for Log PD200: acetylcholine dose for 200% increase in bronchoconstriction; for induction of bronchial hyperresponsiveness (in words): summary of Tables 34-36
Method: Antigen-induced bronchial hyperresponsiveness
Male Hartley guinea pigs were actively sensitized to ovalbumin (OVA) by inhalation of aerosolized solution of 1% ovalbumin twice at a week interval. One week after the second sensitization, the animals were treated with antihistamine, diphenhydramine (10 mg/kg, i.p.), and then challenged with 1% OVA aerosol for 5 min. Twenty four hours later, acetylcholine at doses at 3.13, 6. 25, 12.5, 25, 50 and 100 micro g/kg was sequentially injected into the animals which were anesthetized with pentobarbital (30 mg/kg, i.p.). The bronchoconstriction induced by each dose of acetylcholine was monitored by the modified method of Konzett-Rössler technique, and made a dose-response curve of acetylcholine. Using the dose-response curve, the dose required for 200% increase in bronchoconstriction from baseline (PD200) was calculated in each animal and used as an indication of bronchial responsiveness. Compounds were orally administered 1 hour before antigen challenge. **: P<0.01 vs Vehicle(Dunnett's test), ##: P<0.01 vs Vehicle(Student's t test).

PGD2 receptor [3] = molecular target: T1, PGD2 receptor (Homo sapiens, UniProt Q13258); experiment: Binding activity to PGD2 receptor in human platelet membrane fraction ([3H]PGD2); set-up: The platelets were homogenized using a homogenizer (Ultra-Turrax) followed by centrifugation 3 times at 20,000 rpm; from tissue; host or cells: human platelet membrane fraction from blood of healthy volunteers; details: Comparative Experiment 1; read-out: Experiment 1 Antaginistic activity against PGD2 receptor IC50
T1 sequence (Q13258 1-359): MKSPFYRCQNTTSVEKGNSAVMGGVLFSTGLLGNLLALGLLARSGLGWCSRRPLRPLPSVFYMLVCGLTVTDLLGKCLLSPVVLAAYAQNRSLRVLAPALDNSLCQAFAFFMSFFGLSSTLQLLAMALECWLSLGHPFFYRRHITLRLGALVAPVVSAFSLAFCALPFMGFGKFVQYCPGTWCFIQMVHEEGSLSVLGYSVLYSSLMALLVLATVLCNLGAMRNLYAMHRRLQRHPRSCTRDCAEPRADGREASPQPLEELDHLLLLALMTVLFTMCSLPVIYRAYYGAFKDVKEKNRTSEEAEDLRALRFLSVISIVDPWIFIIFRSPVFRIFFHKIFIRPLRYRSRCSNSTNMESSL
Method: Experiment 1 Binding activity to PGD2 Receptor
(1) Preparation of Human Platelet Membrane Fraction
Blood was collected using a plastic syringe containing 3.8% sodium citrate from the vein of healthy volunteers (adult male and female), then put into a plastic test tube and mixed by slow-reversion. The sample was then centrifuged at 1800 rpm, for 10 min at room temperature, and the supernatant containing PRP (platelet-rich plasma) was collected. The PRP was recentrifuged at 2300 rpm, for 22 min at room temperature to obtain platelets. The platelets were homogenized using a homogenizer (Ultra-Turrax) followed by centrifugation 3 times at 20,000 rpm, 10 min at 4° C.. to obtain a platelet membrane fraction. After protein determination, the membrane fraction was adjusted to 2 mg/ml and preserved in a refrigerator at −80° C.. until using for the binding test.
(2) Binding to PGD2 Receptor
To a binding-reaction solution (50 mM Tris/HCl, pH 7.4, 5 mM MgCl2) (0.2 ml) were added the human platelet membrane fraction (0.1 mg) and 5 nM [^3H]PGD2 (115 Ci/mmol), and the mixture was reacted at 4° C. for 90 min. After the reaction, the mixture was filtered through a glass fiber filter paper and washed several times with cooled physiological saline, then the radioactivity retained on the filter paper was measured. The specific-binding ratio was calculated by subtracting the non-specific binding ratio which is the radioactivity similarly measured in the presence of 10 μM PGD2 from the total binding.

PGD2 receptor [4] = molecular target: T1, PGD2 receptor; experiment: Antagonistic activity against PGD2 receptor using human platelet (inhibition of cAMP increase caused by PGD2); format: cell-based; details: Comparative Experiment 1; read-out: Experiment 3 Antaginistic activity against PGD2 receptor IC50
Method: Experiment 3 Evaluation of Antagonistic Activity Against PGD2 Receptor Using Human Platelet
Peripheral blood was collected from a healthy volunteer using a syringe in which 1/9 volume of a citric acid/dextrose solution was previously added. The sample was subjected to centrifugation at 180 g for 10 min to obtain the supernatant (PRP: platelet rich plasma). The resultant PRP was washed 3 times with a washing buffer and the number of platelets was counted with a micro cell counter. A suspension adjusted to contain the platelets at a final concentration of 5×10^8/ml was warmed at 37° C., then subjected to the pre-treatment with 3-isobutyl-1-methylxanthine (0.5 mM) for 5 min. To the suspension was added a test compound diluted at various concentration, and 10 minutes later, 0.1 μM PGD2 was added to induce the reaction 2 minutes later, hydrochloric acid was added to terminate the reaction. The platelet was destroyed with an ultrasonic homogenizer. After centrifugation, the cAMP in the supernatant was determined by radioimmunoassay. PGD2 receptor antagonism of a drug was evaluated as follows: the inhibition rate regarding cAMP increased by the addition of PGD2 was determined at each concentration, and the concentration of the drug required for 50% inhibition (IC50) was calculated.

Male Hartley guinea pigs [5] = experiment: Antigen-induced increase in the eosinophil number in bronchoalveolar lavage fluid; format: in vivo, guinea pig; details: for Eosinophils, inhibition % / Total cells, inhibition % / Cell number, Eosinophils / Cell number, Total cells: 10 mg/kg orally, 1 hour before and 24 and 48 hours after challenge; for Cell number, Eosinophils / Cell number, Total cells: BAL 72 hours; for eosinophil infiltration (in words): summary of Tables 37-39
Method: Antigen-induced increase in the eosinophil number in bronchoalveolar lavage fluid.
As described above, the animals were sensitized and challenged with antigen, seventy-two hours later, bronchoalveolar lavage was performed with 10 mL of saline. After the number of total cells in the recovered fluid was counted, smear samples were made. The samples were stained with May Grünward-Giemsa Stain, and differential cell count was performed by counting 500 cells/each sample. The eosinophil number was calculated by the ratio of the number of eosinophils, macrophages, neutrophils and lymphocytes. Compounds were orally administered three times 1 hour before and 24 and 48 hours after the challenge. The results are shown as follows. *: P<0.05, * *: P<0.01 vs Vehicle(Dunnett's test), : P<0. 01 vs Vehicle(Student's t test). ( ): inhibition %.

[6] = 3 mg/kg orally 2 hours before antigen challenge
[7] = 10 mg/kg orally 2 hours before antigen challenge
[8] = 1 mg/kg orally 1 hour before antigen challenge
[9] = 10 mg/kg orally 1 hour before antigen challenge
[10] = 30 mg/kg orally 1 hour before antigen challenge

| SMILES | Peak bronchoconstriction (Male Hartley guinea pigs [1]; [6]) | Peak bronchoconstriction, inhibition % (Male Hartley guinea pigs [1]; [6]) | Peak bronchoconstriction (Male Hartley guinea pigs [1]; [7]) | Peak bronchoconstriction, inhibition % (Male Hartley guinea pigs [1]; [7]) | antigen-induced bronchoconstriction (in words) (Male Hartley guinea pigs [1]) | Log PD200 (Male Hartley guinea pigs [2]; [8]) | Log PD200 (Male Hartley guinea pigs [2]; [9]) | induction of bronchial hyperresponsiveness (in words) (Male Hartley guinea pigs [2]) | IC50 (PGD2 receptor [3]) | IC50 (PGD2 receptor [4]) | Eosinophils, inhibition % (Male Hartley guinea pigs [5]) | Total cells, inhibition % (Male Hartley guinea pigs [5]) | Cell number, Eosinophils (Male Hartley guinea pigs [5]) | Cell number, Total cells (Male Hartley guinea pigs [5]) | eosinophil infiltration (in words) (Male Hartley guinea pigs [5]) | Peak bronchoconstriction (Male Hartley guinea pigs [1]; [8]) | Peak bronchoconstriction, inhibition % (Male Hartley guinea pigs [1]; [8]) | Peak bronchoconstriction (Male Hartley guinea pigs [1]; [10]) | Peak bronchoconstriction, inhibition % (Male Hartley guinea pigs [1]; [10]) |
| --- | --- | --- | --- | --- | --- | --- | --- | --- | --- | --- | --- | --- | --- | --- | --- | --- | --- | --- | --- |
| O=C(O)CCC/C=C\C[C@H]1[C@@H]2CC[C@@H](C2)[C@@H]1NS(=O)(=O)c1ccccc1 [A] | 55.3 ± 6.7 cm H2O | 7% | 18.8 ± 3.3 cm H2O | 68% | dramatically suppressed | 1.29 ± 0.04 | 1.61 ± 0.09** | suppressed | > 10 µM | > 10 µM | −18% | −18% | 4.90 ± 0.73 ×10^6 cells/animal | 13.78 ± 1.75 ×10^6 cells/animal | did not show any inhibitory actions | – | – | – | – |
| CC1(C)[C@H]2C[C@H](C/C=C\CCCC(=O)O)[C@@H](NC(=O)c3csc4ccc(O)cc34)[C@@H]1C2 [Compound B-2] | – | – | – | – | did not suppress | – | 1.17 ± 0.05 | did not inhibit | – | – | 43% | 45% | 4.49 ± 0.63 ×10^6 cells/animal | 13.01 ± 1.58 ×10^6 cells/animal | significantly suppressed | 36.5 ± 18.2 cm H2O | −20% | 51.8 ± 16.3 cm H2O | −71% |
